From DBAASP
Converted amounts (≈) assume the structure as drawn. One block for each compound: values may come before it.

Columns and labels:
Assay in all cases: ≥ marks a high value that may be exact or a test limit, other limits are often not marked, values filed in µg/mL are converted to µM
[1] = system: Proteus vulgaris ATCC 6380
[2] = system: Pseudomonas aeruginosa ATCC 9027
[3] = system: Staphylococcus aureus ATCC 6538
[4] = system: Micrococcus luteus ATCC 9341
[5] = system: Candida albicans ATCC 36232
Staphylococcus aureus = system: Staphylococcus aureus
[6] = system: Escherichia coli ATCC 2592
Pseudomonas aeruginosa = system: Pseudomonas aeruginosa
[7] = system: Pseudomonas aeruginosa CMCCB 1010
Shigella dysenteriae = system: Shigella dysenteriae
[8] = system: Candida albicans ATCC 90028
[9] = system: Enterobacter cloacae ATCC 13047
[10] = system: Staphylococcus aureus ATCC 25923
Staphylococcus aureus 37 = system: Staphylococcus aureus 37
Staphylococcus aureus 10 = system: Staphylococcus aureus 10
[11] = system: Candida parapsilosis ATCC 22019
Escherichia coli 117 = system: Escherichia coli 117
[12] = system: Pseudomonas aeruginosa ATCC 27853
[13] = system: Klebsiella pneumoniae ATCC 700603
[14] = system: Staphylococcus epidermidis
[15] = system: Staphylococcus aureus A170
Escherichia coli W160-37 = system: Escherichia coli W160-37
[16] = system: Psychrobacter faecalis X29
[17] = system: Enterobacter cloacae CGMCC 1.57
[18] = system: Enterococcus faecalis 981
Candida glabrata 090902 = system: Candida glabrata 090902
Nocardia asteroides = system: Nocardia asteroides
[19] = system: Klebsiella pneumoniae ATCC 10031
Saccharomyces cerevisiae = system: Saccharomyces cerevisiae
Pseudomonas putida = system: Pseudomonas putida
Candida albicans = system: Candida albicans
[20] = system: Salmonella enterica subsp. enterica serovar Typhimurium ATCC 14028
Serratia marcescens = system: Serratia marcescens
[21] = system: Proteus mirabilis ATCC 25933
[22] = system: Bacillus subtilis KCTC 1021
[23] = system: Shigella dysenteriae ATCC 9752
[24] = system: Staphylococcus epidermidis ATCC 12228
Escherichia coli = system: Escherichia coli
[25] = system: Micrococcus luteus ATCC 4698
[26] = system: Pseudomonas aeruginosa K799
[27] = system: Pseudomonas aeruginosa H374
Escherichia coli KF111 = system: Escherichia coli KF111
[28] = system: Pseudomonas aeruginosa H744
Escherichia coli KF130 = system: Escherichia coli KF130
Escherichia coli UB1005 = system: Escherichia coli UB1005
[29] = system: Salmonella enterica subsp. enterica serovar Typhimurium ATCC 14028s

Compound: CC[C@H](C)[C@H](NC(=O)[C@@H]1CCCN1C(=O)[C@H](CC(C)C)NC(=O)[C@@H](N)CC(C)C)C(=O)N[C@H](C(=O)NCC(=O)N[C@@H](CC(N)=O)C(=O)N[C@@H](CC(C)C)C(=O)N[C@@H](CC(C)C)C(=O)N[C@@H](CCCCN)C(=O)N[C@@H](C)C(=O)N[C@@H](CC(C)C)C(=O)N[C@@H](CC(C)C)C(=O)O)C(C)C [LLPIVGNLLKALL]
MIC [14]: 14.5 µM (≈ 20 µg/mL)
MIC [15]: 7.26 µM (≈ 10 µg/mL)

Compound: CC[C@H](C)[C@H](NC(=O)[C@H](CC(C)C)NC(=O)CNC(=O)[C@H](CO)NC(=O)[C@@H](NC(=O)[C@@H](N)Cc1ccccc1)[C@@H](C)CC)C(=O)NCC(=O)NCC(=O)N[C@@H](CC(C)C)C(=O)N[C@@H](CCSC)C(=O)N[C@@H](CCCCN)C(=O)N[C@@H](C)C(=O)N[C@@H](CC(C)C)C(N)=O [FISGLIGGLMKAL]
MIC [16]: ≥ 200 µM
MIC [17]: ≥ 400 µM
MIC [10]: 25 µM (≈ 33 µg/mL)
MIC [18]: ≥ 50 µM
MIC (Candida glabrata 090902): ≥ 100 µM
MIC (Nocardia asteroides): 25 µM (≈ 33 µg/mL)

Compound: CC[C@H](C)[C@H](NC(=O)CN)C(=O)N[C@@H](CCSC)C(=O)N[C@@H](CO)C(=O)N[C@H](C(=O)N[C@H](C(=O)N[C@@H](CCCCN)C(=O)N[C@@H](CC(=O)O)C(=O)N[C@H](C(=O)N[C@@H](C)C(=O)N[C@@H](CCCCN)C(=O)N[C@H](C(=O)N[C@@H](C)C(=O)N[C@@H](C)C(=O)N[C@@H](CCCCN)C(=O)N[C@@H](CCC(=O)O)C(=O)N[C@@H](C)C(=O)N[C@@H](C)C(=O)N[C@@H](CCCCN)C(=O)NCC(=O)N[C@@H](C)C(=O)N[C@@H](CC(C)C)C(=O)N[C@@H](CO)C(=O)N[C@H](C(=O)N[C@@H](CC(C)C)C(=O)N[C@@H](CO)C(=O)N[C@H]1CSSC[C@@H](C(=O)O)NC(=O)[C@H]([C@@H](C)O)NC(=O)[C@H](CCCCN)NC(=O)[C@H](C)NC(=O)[C@H](CC(C)C)NC(=O)[C@H](CCCCN)NC1=O)[C@@H](C)O)[C@@H](C)O)C(C)C)C(C)C)[C@@H](C)CC [GIMSIVKDVAKTAAKEAAKGALSTLSCKLAKTC]
MIC [2]: 15.1 µM (≈ 50 µg/mL)
MIC [19]: 7.56 µM (≈ 25 µg/mL)
MIC (Saccharomyces cerevisiae): ≥ 60.4 µM
MIC (Pseudomonas putida): 15.1 µM (≈ 50 µg/mL)
MIC (Candida albicans): > 60.4 µM
MIC [20]: 45.3 µM (≈ 150 µg/mL)
MIC (Serratia marcescens): ≥ 60.4 µM
MIC [21]: ≥ 60.4 µM
MIC [22]: 3.02 µM (≈ 9.99 µg/mL)
MIC [23]: 7.56 µM (≈ 25 µg/mL)
MIC [24]: 3.02 µM (≈ 9.99 µg/mL)
MIC (Escherichia coli): 22.7 µM (≈ 75 µg/mL)
MIC [25]: 0.755 µM (≈ 2.5 µg/mL)

Compound: CC[C@H](C)[C@H](NC(=O)[C@@H]1CCCN1C(=O)[C@H](CCCCN)NC(=O)[C@H](CC(C)C)NC(=O)[C@H](C)NC(=O)[C@@H](NC(=O)[C@H](Cc1ccc(O)cc1)NC(=O)[C@H](CC(C)C)NC(=O)[C@@H](NC(=O)[C@@H](NC(=O)[C@H](CCCN=C(N)N)NC(=O)[C@H](C)NC(=O)[C@@H]1CCCN1C(=O)[C@H](CO)NC(=O)[C@H](CCCCN)NC(=O)[C@H](Cc1ccccc1)NC(=O)[C@@H](NC(=O)[C@H](CCCCN)NC(=O)[C@H](CC(C)C)NC(=O)[C@H](Cc1ccccc1)NC(=O)[C@H](CO)NC(=O)[C@H](CCCCN)NC(=O)[C@H](Cc1c[nH]c2ccccc12)NC(=O)[C@@H](N)CCCCN)[C@@H](C)O)[C@@H](C)O)C(C)C)[C@@H](C)O)C(=O)N[C@@H](CO)C(=O)N[C@@H](CO)C(=O)O [KWKSFLKTFKSPARTVLYTALKPISS]
MIC [26]: 10.7 µM (≈ 32 µg/mL)
MIC [27]: 5.34 µM (≈ 16 µg/mL)
MIC [14]: 21.3 µM (≈ 64 µg/mL)
MIC (Escherichia coli KF111): 0.667 µM (≈ 2 µg/mL)
MIC [28]: 5.34 µM (≈ 16 µg/mL)
MIC (Escherichia coli KF130): 0.667 µM (≈ 2 µg/mL)
MIC (Escherichia coli UB1005): 0.334 µM (≈ 1 µg/mL)
MIC [29]: 5.34 µM (≈ 16 µg/mL)

Continued, values first:

MIC [1]: ≥ 56.1 µM
MIC [2]: 28.1 µM (≈ 50 µg/mL)
MIC [3]: 56.1 µM (≈ 99.9 µg/mL)
MIC [4]: 14 µM (≈ 25 µg/mL)
MIC [5]: 28.1 µM (≈ 50 µg/mL)
MIC (Staphylococcus aureus): > 56.1 µM
MIC [6]: 28.1 µM (≈ 50 µg/mL)
Compound: CC[C@H](C)[C@H](NC(=O)[C@H](CCCCN)NC(=O)[C@@H]1CCCN1C(=O)[C@H](CC(C)C)NC(=O)[C@H](Cc1ccccc1)NC(=O)[C@H](CC(N)=O)NC(=O)[C@H](C)N)C(=O)N[C@@H](Cc1ccccc1)C(=O)N[C@@H](CS)C(=O)N[C@@H](CCCCN)C(=O)N[C@H](C(=O)N[C@H](C(=O)N[C@@H](CCCN=C(N)N)C(=O)N[C@@H](CCCCN)C(=O)N[C@@H](CS)C(N)=O)[C@@H](C)O)[C@@H](C)CC [ANFLPKIFCKITRKC]

MIC (Pseudomonas aeruginosa): 53.1 µM (≈ 80 µg/mL)
MIC [7]: 6.64 µM (≈ 10 µg/mL)
MIC (Shigella dysenteriae): 6.64 µM (≈ 10 µg/mL)
MIC [8]: 13.3 µM (≈ 20 µg/mL)
MIC [9]: 26.6 µM (≈ 40 µg/mL)
MIC [10]: 53.1 µM (≈ 80 µg/mL)
MIC (Staphylococcus aureus 37): ≥ 53.1 µM
MIC (Staphylococcus aureus 10): 26.6 µM (≈ 40 µg/mL)
MIC [11]: 13.3 µM (≈ 20 µg/mL)
MIC (Escherichia coli 117): ≥ 53.1 µM
MIC [12]: 6.64 µM (≈ 10 µg/mL)
MIC [13]: 13.3 µM (≈ 20 µg/mL)
Compound: CC[C@H](C)[C@H](N)C(=O)N[C@@H](CC(N)=O)C(=O)N[C@@H](CC(C)C)C(=O)N[C@@H](CCCCN)C(=O)N[C@@H](C)C(=O)N[C@H](C(=O)N[C@@H](C)C(=O)N1CCC[C@H]1C(=O)N[C@@H](CC(C)C)C(=O)N[C@@H](C)C(=O)N[C@@H](CCCCN)C(=O)N[C@@H](CCCCN)C(=O)N[C@@H](CC(C)C)C(=O)N[C@@H](CC(C)C)C(=O)O)[C@@H](C)CC [INLKAIAPLAKKLL]

MIC (Escherichia coli W160-37): 22 µM (≈ 39.3 µg/mL)
MIC (Staphylococcus aureus): 17 µM (≈ 30.4 µg/mL)
Compound: CC[C@H](C)[C@H](NC(=O)[C@H](CCCCN)NC(=O)[C@H](CCCCN)NC(=O)[C@H](Cc1c[nH]c2ccccc12)NC(=O)[C@H](CCCCN)NC(=O)[C@H](CO)NC(=O)[C@H](CC(C)C)NC(=O)[C@H](Cc1ccccc1)NC(=O)[C@@H](NC(=O)[C@H](CCCCN)NC(=O)[C@H](CC(C)C)NC(=O)[C@H](CC(C)C)NC(=O)[C@H](CCCCN)NC(=O)[C@@H]1CCCN1)[C@@H](C)O)C(=O)NCC(=O)O [PKLLKTFLSKWKKIG]
